Marks after values point to notes of the source that are not given here. *1 amine or outer side, *2 acyl side, *3 side chain or, on linkers, in order; H or OH if unused. Where a SMILES comes first, the peptide text is derived from it. Bridges are numbered along the chain shown (N, C = ends). Roman numbers before positions name the chains, in order. [ ]: non-standard residue; d: D form. The star is where a group is joined. Phe(2,4,6-Me3) = Cc1cc(C)c(C[C@H](N)C(=O)O)c(C)c1; X1 = Cc1cc(C)c(CC(N[*:1])C(=O)[*:2])c(C)c1; pGlu = O=C1CC[C@@H](C(=O)O)N1; Octanoyl = CCCCCCCC(=O)*
Experiments:
[1] = test system: RH30 rhabdomyosarcoma cells; assay: Matrigel-coated transwell invasion assay, RH30 cells; format: cell-based; details: % invasive cells vs non-treated control
Procedure: (§1) 10^5 RH30 or RD cells were plated in the upper chamber of a Matrigel-coated transwell (Corning) in 0.1 mL medium without FBS. Cells were previously incubated with different concentrations (0 nM, 100 nM, 200 nM, 500 nM and 1000 nM) of the peptides and peptide dimer for 48 hours, being also present in the medium during the cell invasion assay. In the lower chamber, 0.6 mL of medium with FBS was added. Cells were incubated at 37° ° C. for 24 hours.
(§2) After that, cells were fixed with 4% paraformaldehyde (Sigma) for 10 minutes, followed by washing with PBS. After removal of the Matrigel and remaining cells from the upper face of the membrane with a cotton swab, the cells present on the lower face were stained with a Hoechst dilution (Sigma) and were counted (5 fields for each well) with an inverted fluorescence microscope Nikon with a 10× objective. All experiments were made in triplicate. In Table 6 the % Invasiveness represents the mean percentage of invasive cells with respect to their controls.

[2] = In vitro stability, half-life in human plasma; format: in vitro ADME; details: 90% human plasma, 37° C., RP-HPLC; read-out: t½ (hours) in human plasma (converted)
Procedure: The peptides and peptide dimer synthesized and prepared in accordance with Example 1 were dissolved in water at a concentration of 6 mg/mL and warmed up to 37° C.
Human plasma was obtained as a lyophilized solid (K3 EDTA Plasma, BBI Solutions, code S112-1), reconstituted with sterile 0.9% sodium chloride solution and stored at −20° C. Human plasma was thawed and incubated at 37° C. before use.
The peptides and peptide dimer were incubated in 90% human plasma at 37° C. for different times and then precipitated with two volume equivalents of methanol. The samples were cooled in an acetone-carbon dioxide bath for a few seconds and centrifuged for 12 minutes at 4° C. at approximately 10,000 rpm. The supernatant was filtered with a 0.45 μm PVDF filter and analyzed in triplicate by RP-HPLC using an isocratic method (Eluent A=0.1% TFA in water; Eluent B=0.07% TFA in ACN, Column=Kromasil C8, 100 Å, 5 μm, 250×4.6 mm, Flow=1 mL/min, Wavelength: 220 nm, Injection volume=20 μL, Temperature=60° C.). The disappearance of the compound was determined in relation to the area of the initial time to calculate its half-life.

[3] = test system: RD rhabdomyosarcoma cells; assay: Matrigel-coated transwell invasion assay, RD cells; format: cell-based; details: % invasive cells vs non-treated control
Procedure: as §1, §2

[4] = 500 nM peptide, listed as Octanoyl-SEQ ID NO: 5—NH2

half-life at 0.6 mg/mL [2] [h]	SMILES	% Invasiveness RH30 ([1]; 100 nM peptide)	% Invasiveness RH30 ([1]; 100 nM peptide, listed as Ac-SEQ ID NO: 5—NH2)	% Invasiveness RH30 ([1]; 500 nM peptide)	% Invasiveness RD ([3]; 100 nM peptide) [%]	% Invasiveness RD ([3]; 500 nM peptide)	% Invasiveness RH30 [1, 4]	% Invasiveness RD [3, 4]	% Invasiveness RH30 ([1]; 100 nM peptide, listed as (SEQ ID NO: 6—NH2)2)	% Invasiveness RH30 ([1]; 200 nM peptide)	% Invasiveness RH30 ([1]; 1000 nM peptide)	% Invasiveness RD ([3]; 1000 nM peptide)	% Invasiveness RD ([3]; 1000 nM peptide, listed as (SEQ ID NO: 6—NH2)2)
0.23	CC(=O)N[C@@H](CCCCN)C(=O)N[C@@H](CCCNC(=N)N)C(=O)N[C@@H](CC(=O)O)C(=O)N[C@@H](CO)C(=O)N[C@@H](CO)C(=O)N[C@@H](CC(N)=O)C(=O)N[C@@H](CO)C(=O)N[C@@H](CS)C(=O)N[C@@H](CC(=O)O)C(=O)N[C@@H](CC(C)C)C(=O)N1CCC[C@H]1C(=O)N[C@@H](CCC(=O)O)C(=O)NC(Cc1c(C)cc(C)cc1C)C(=O)N[C@@H](CCCCN)C(N)=O (stereo partly drawn) [Ac-SEQ ID NO: 5-NH2, Ac-Lys-Arg-Asp-Ser-Ser-Asn-Ser-Cys-Asp-Leu-Pro-Glu-Msa-Lys-NH2] (Ac-KRDSSNSCDLPE[X1]K-NH2)	24.83* %	significant reduction	18.49* %	100.80	35.59%							
0.15	CCCCCCCC(=O)N[C@@H](CCCCN)C(=O)N[C@@H](CCCNC(=N)N)C(=O)N[C@@H](CC(=O)O)C(=O)N[C@@H](CO)C(=O)N[C@@H](CO)C(=O)N[C@@H](CC(N)=O)C(=O)N[C@@H](CO)C(=O)N[C@@H](CS)C(=O)N[C@@H](CC(=O)O)C(=O)N[C@@H](CC(C)C)C(=O)N1CCC[C@H]1C(=O)N[C@@H](CCC(=O)O)C(=O)N[C@@H](Cc1c(C)cc(C)cc1C)C(=O)N[C@@H](CCCCN)C(N)=O [Octanoyl-SEQ ID NO: 5-NH2, Octanoyl-Lys-Arg-Asp-Ser-Ser-Asn-Ser-Cys-Asp-Leu-Pro-Glu-Msa-Lys-NH2] (Octanoyl-KRDSSNSCDLPE[Phe(2,4,6-Me3)]K-NH2)	120.81%		41.12* %	56.90	14.16* %	significant reduction	significant decrease					
33.1	Cc1cc(C)c(C[C@H](NC(=O)[C@H](CCC(=O)O)NC(=O)[C@@H]2CCCN2C(=O)[C@H](CC(C)C)NC(=O)[C@H](CC(=O)O)NC(=O)[C@H](CSSC[C@H](NC(=O)[C@H](CO)NC(=O)[C@H](CC(N)=O)NC(=O)[C@H](CO)NC(=O)[C@H](CO)NC(=O)[C@H](CC(=O)O)NC(=O)[C@H](CCCNC(=N)N)NC(=O)[C@H](CCCCN)NC(=O)[C@@H]2CCC(=O)N2)C(=O)N[C@@H](CC(=O)O)C(=O)N[C@@H](CC(C)C)C(=O)N2CCC[C@H]2C(=O)N[C@@H](CCC(=O)O)C(=O)N[C@@H](Cc2c(C)cc(C)cc2C)C(=O)N[C@@H](CCCCN)C(N)=O)NC(=O)[C@H](CO)NC(=O)[C@H](CC(N)=O)NC(=O)[C@H](CO)NC(=O)[C@H](CO)NC(=O)[C@H](CC(=O)O)NC(=O)[C@H](CCCNC(=N)N)NC(=O)[C@H](CCCCN)NC(=O)[C@@H]2CCC(=O)N2)C(=O)N[C@@H](CCCCN)C(N)=O)c(C)c1 [(SEQ ID NO: 6-NH2)2 (disulfide bridge), (Pyr-Lys-Arg-Asp-Ser-Ser-Asn-Ser-Cys-Asp-Leu-Pro-Glu-Msa-Lys-NH2)2 (disulfide bridge)] (I: [pGlu]KRDSSNSCDLPE[Phe(2,4,6-Me3)]K-NH2 / II: [pGlu]KRDSSNSCDLPE[Phe(2,4,6-Me3)]K-NH2; disulfide I:9-II:9)	82.46* %		78.26* %		64.71%			significant reduction	70.84* %	57.59* %	25.36* %	significant decrease
